Assay [1] has as its system CD3^+CD8^+ T cells from HIV^+ subjects. In words: CFSE-based CD3+CD8+ T-cell proliferation, HIV+ human subjects. The following applies: for CD8, frequency of responders: FIV epitope peptide; for CD8^+ T (T-cell proliferation), frequency of responders: FIV peptides. As to the method: The overlapping peptide pools of FIV and HIV-1 structural and enzyme proteins were used to stimulate the […] (PBMC) and the T cells from HIV^+ subjects as previously described for epitope mapping of HIV-1 and FIV p24 and reverse transcriptase (RT) (Sanou et al., 2013; Roff et al., 2015). The individual peptides in those peptide pools with positive responses to either interferon-γ (IFNγ) production and/or T-cell proliferation were determined with IFNγ ELISpot analysis and CFSE-based CD3^+CD4^+ and CD3^+CD8^+ T-cell proliferation analyses followed by the FACS-based intracellular staining (ICS) for cytolysin (perforin) and cytotoxin (granzyme A [GrzA] and GrzB) (Sanou et al., 2013; Roff et al., 2015). Besides viral p24 and RT proteins, the identical approach was used to identify anti-HIV/FIV T-cell epitopes on viral matrix (MA), nucleocapsid (NC), protease (PR), RNAase, integrase (IN), surface envelope (SU Env), and transmembrane envelope (TM Env) (FIG. 12).
Since our goal is to develop HIV vaccine for human use, the HIV peptides (Table 10) counterpart of the cross-reactive FIV peptides shown in Table 9 were tested with PBMC and T cells from HIV^+ subjects. The immune functions analyzed were human IFNγ production by ELISpot, cytolysin/cytotoxin production by ICS, and CFSE-based proliferation of CD3^+CD4^+ and CD3^+CD8^+ T cells from HIV^+ subjects (Table 10, the first set of results). In addition, the Los Alamos National Laboratories (LANL) database was used to identify the HLA allele(s) of the HIV epitope sequence with CTL activity that can exist within the sequence of the conserved counterpart HIV peptide (Table 9, LANL CTL). The bold HLA class-I supertypes and the bold 2-digit alleles are those on the “Optimal CD8^+ CTL Epitopes” list and those without bold are alleles for potential CTL epitope. […] The HLA class II such as HLA-DRB1 has yet to be fully classified into supertypes, and therefore the 4-digit resolution nomenclatures for the HLA-DRB1 alleles are shown.
The threshold for positive IFNγ and IL2 ELISpot responses is ≥50 spot-forming units (SFU) per 10^6 PBMC. The threshold for CFSE-based CD4^+ and CD8^+ T-cell proliferation is ≥2% CD4^+ T-cell CFSE^low or CD8^+ T-cell CFSE^low. The threshold of FACS-based intracellular cytokine staining (ICS) is ≥0.2%. […] The nine FIV peptides in black were used in the current MAP vaccine trial, whereas the 13 peptides in blue were not used. […] The MAPs and their corresponding peptide(s) were also tested for their ability to enhance or suppress in vitro FIV infection of feline PBMC (E/S of peptides and E/S of MAP).
The counterpart HIV-1 peptides of the FIV peptides were also tested for immunogenicity using PBMC and T cells from HIV^+ human subjects. […] The HRT7-1 and HRT7-2 were also tested with cells from HIV^+ subjects on ART. The threshold for positive IFNγ ELISpot response is ≥75 spot-forming units (SFU) per 10^6 PBMC. The threshold for CFSE-based CD4^+ (CD4^+ T) and CD8^+ (CD8^+ T) T-cell proliferation is ≥2% CD4^+ T-cell CFSE^low or CD8^+ T-cell CFSE^low. The threshold of intracellular cytokine staining (ICS) of FACS-based cytolysin (perforin) and cytotoxins (granzymes A and B) in CD4^+ T cells (CyCD4) and CD8^+ T cells (CyCD8) is ≥0.2%. […] The nine HIV-1 peptides in black are the counterpart FIV peptides used in the current MAP vaccine trial, whereas the 13 peptides in blue were not.

Assay [2] relates to PBMC from FIV-vaccinated cats. In words: Feline IFNγ ELISpot of PBMC from vaccinated cats. The assay is classed as cell-based, cat. Conditions: for IFNγ production: pilot study, pre-challenge; for IFNγ response rate: MAP Trial 2.
Assay [3] can be described thus: ELISA and FIV immunoblot for antibodies to vaccine peptides/MAPs. The assay is classed as in vivo, cat. The following applies: IWV/MAP-vaccinated cats, throughout the vaccination (pilot study). As to the method: To avoid detection of vaccine antibodies to p24 and RT, post-challenge sera were evaluated for infection-induced FIV antibodies by ELISA using 200 ng/well of transmembrane peptide (TM, aa 694-705: […] (SEQ ID NO:68)) as previously described. The positive threshold for anti-TM antibodies was set at 0.2 O.D. The post-vaccination sera immediately before challenge were evaluated for NAb titer to FIVPet and FIVFC1 by NAb assay as previously described. The post-vaccination/pre-challenge sera were tested for antibodies to vaccine peptides by ELISA using each peptide as substrate and by FIV immunoblot with mini-blot modification as previously described. All ELISA thresholds were set at twice the average of the individual serum from 15-20 SPF cats.

[4] abbreviates: FIV epitope peptide, FIV-vaccinated cats.
Where [5] appears, read: FIV peptides, FIV-vaccinated cats (prototype dual-subtype vaccine).

Six sequences from patent publication US10758609B2, “Cross-reactive T-cell epitopes of HIV, SIV, and FIV for vaccines in humans and cats” (priority 2015, dated 2020) can be followed below.

AGLRQSLEQYQVVKQ [FSU4]: in assay [1], the “CD8, frequency of responders” value is reported as “— (0%-1.4% (—))” and the “CD8^+ T (T-cell proliferation), frequency of responders” value (from here on “CD8^+ T (T-cell proliferation)”) was “— (0%-1.4%(—))”. The “IFNγ, frequency of responders” value in assay [2] (setting [4]) is listed as “+++ (41%-54% (+++))”. Moreover, the “IFNγ, frequency of responders” value in assay [2] (setting [5]) is “+++ (40.1%-54% (+++))”.
With KFLYTAFAMQELR [FTM4-3], in assay [1], the “CD8, frequency of responders” value is “— (0%-1.4% (—))” and the “CD8^+ T (T-cell proliferation)” value is reported as “— (0%-1.4%(—))”. Further, the “IFNγ, frequency of responders” value in assay [2] (setting [4]) is reported as “++++ (>54% (++++))”. Further, the “IFNγ, frequency of responders” value in assay [2] (setting [5]) was “++++ (>54% (++++))”.
With KKKSGKWRMLIDFRV [FRT3-3], in assay [1], the “CD8, frequency of responders” value was “++++ (>54% (++++))” and the “CD8^+ T (T-cell proliferation)” value is reported as “++++ (>54% (++++))”. In assay [2] (setting [5]), the “IFNγ, frequency of responders” value is “± (1.5%-12.4% (±))”. The “Peptide-specific serum antibodies (ELISA)” value in assay [3] is listed as “No specific antibodies”.
Turning to LLLILCLPTLVDCIRN [FTM8(20)], the “CD8, frequency of responders” value in assay [1] is on record as “++++ (>54% (++++))”. In addition, the “CD8^+ T (T-cell proliferation)” value in assay [1] is reported as “++++ (>54% (++++))”. Moreover, the “IFNγ, frequency of responders” value in assay [2] (setting [4]) is listed as “++ (26%-40% (++))”; in assay [2] (setting [5]) it was “++ (25.1%-40% (++))”.
Regarding PTDMATLIMAAPGCA [Fp4-3], in assay [1], the “CD8, frequency of responders” value is “— (0%-1.4% (—))”. Moreover, in assay [1], the “CD8^+ T (T-cell proliferation)” value is “— (0%-1.4%(—))”. Further, the figures for the “IFNγ, frequency of responders” value in assay [2] (setting [4]) and in assay [2] (setting [5]) were “++ (26%-40% (++))” and “++ (25.1%-40% (++))”, respectively. Also, the IFNγ production stood at 161 SFU in assay [2] (cat OCA) and 60 SFU in assay [2] (cat SBA). Also, the “Peptide-specific serum antibodies (ELISA)” value in assay [3] is “No specific antibodies”.
With WRMLIDFRVLNKL [FRT3-4], in assay [1], the “CD8, frequency of responders” value is “++ (26%-40% (++))”. The “CD8^+ T (T-cell proliferation)” value in assay [1] is “++ (25.1%-40% (++))”. For the same sequence, the “IFNγ, frequency of responders” value is “++ (26%-40% (++))” in assay [2] (setting [4]) and “++ (25.1%-40% (++))” in assay [2] (setting [5]). The IFNγ response rate in assay [2] (6 weeks post-3rd vaccination) is 64.3%; in assay [2] (SQ and ID MAP-vaccinated cats, 6 weeks post-2nd vaccination), 14.3%. The “Peptide-specific serum antibodies (ELISA)” value in assay [3] is given as “No specific antibodies”.
